Data set [1] concerns complementary chains of modified and unmodified ODNs. Briefly: Thermal denaturation studies (UV melting, Tm) of ODN duplexes. It counts as binding. The conditions noted are these: for Tm: modified oligomer bound to its complementary unmodified oligomer.
In data set [2] the test system is mismatched 12-mer modified or unmodified ODNs of 3′-d(CCCCCCCCCCCC). Briefly: Base-discriminating properties: UV melting with mismatched ODNs. The conditions noted are these: with mismatched 12-mer modified or unmodified 3′-d(CCCCCCCCCCCC). It counts as binding.

Consider five substances from patent US8193384B2, “Polymer-bound phosphitylating reagents for the synthesis of organophosphorus compounds” (priority 2005, dated 2012).

A word on the Tm: it is the temperature at the midpoint of the melting transition. As to “Modified d(AAAAAAAAAAAA) (SEQ ID NO: 1) Containing Diphosphodiester Internucleotide Linkage (DNA, backbone not given here; contains diphosphodiester internucleotide linkage(s), further chemistry not fully specified) [Compound 13]”, the Tm in data set [1] was determined as 39.7 °C. In data set [2], the melting transition result was “no melting transition was observed”.

As to “Modified d(ATATATATATAT) (SEQ ID NO: 5) Containing Diphosphodiester Internucleotide Linkage (DNA, backbone not given here; contains a diphosphodiester internucleotide linkage) [Compound 17]”, the ΔTm result in data set [1] is “+1.8 °C”. For “Modified d(GGGGGGGGGGGG) (SEQ ID NO: 4) Containing Diphosphodiester Internucleotide Linkage [Compound 16]”, the “binding affinity towards modified 3′-d(CCCCCCCCCCCC) compared with unmodified 3′-d(CCCCCCCCCCCC)” value in data set [1] is “higher binding affinity”.

Turning to “Modified d(TATATATATATA) (SEQ ID NO: 6) Containing Diphosphodiester Internucleotide Linkage (DNA, backbone not given here; contains a diphosphodiester internucleotide linkage) [Compound 18]”, the ΔTm entry in data set [1] is “+3.2 °C”. “Modified d(TTTTTTTTTTTT) (SEQ ID NO: 2) Containing Diphosphodiester Internucleotide Linkage (diphosphodiester internucleotide linkage) [Compound 14]”: in data set [1], the Tm was 39.5 °C.
